# Like-named read-outs stand apart in the source and are kept apart here.
# What was measured:
# [1] = implicit solvent model, values received; cited from earlier work
# [2] = Table 3; free energy of solvation in cyclohexane, experimental; cited from earlier work
# [3] = Free energy of hydration by Solvation Model Dielectric (SMD) implicit solvent model; conditions: absolute error vs Exp (hydration)
# Outline: (§1)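 The set is limited to molecules shared with the QM-parameterized force field calculations for the SMD, PCM and COSMO-RS models. SMD and PCM predictions came from an outside source, while COSMO solvation free energies were generated in-house with MolPro.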
# [4] = Free energy of hydration by Free Energy Machine Learning Model (FML); conditions: absolute error vs Exp (hydration)
# Excerpt: Machine learning models can be used for free energy determination.
# [5] = Free energy of hydration by COSMO implicit solvent model (MolPro ver. 2012); conditions: absolute error vs Exp (hydration)
# Outline: as §1
# [6] = Table 3; CHEX/H2O partition coefficient, experimental; cited from earlier work
# [7] = Table 3; free energy of hydration, experimental; cited from earlier work
# [8] = Free energy of hydration by Polarizable Continuum Model (PCM); conditions: absolute error vs Exp (hydration)
# Outline: as §1
# [9] = Free energy of hydration predicted with the QM-parameterized force field model (ARROW FF), classical MD and PIMD simulation in a water box; conditions: for water Arrow MD Error / water Arrow PIMD8 Error: Table 3; for water Arrow MD Error: absolute error of MD hydration free energy vs experiment; for water Arrow PIMD8 Error: absolute error of PIMD8 hydration free energy vs experiment; for Arrow PIMD8 Error: absolute error vs Exp (hydration)
# Outline: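 Solute decoupled from solvent in a 32×32×32 Å3 water box (PME, 9 Å cutoffs), electrostatics, exchange-repulsion and dispersion switched off together over 15 lambda points with soft-coring. Steepest-descent minimization, 50 ps equilibration, 1 ns NPT production at 1 atm; classical and path-integral MD. Free energy from BAR and TI.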
# [10] = CHEX/H2O partition coefficient (log D) predicted with the QM-parameterized force field model (ARROW FF)
# Outline: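 Cyclohexane/water partition coefficients were predicted by molecular simulation with a QM-parameterized force field, with bonded force constants and equilibrium values fitted to MP2/aug-cc-pVTZ energies. Solutes carried neutral functional groups, and results from four independent groups were averaged.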
# [11] = implicit solvent model, values received; cited from earlier work; remark: listed apart in the source
# [12] = Table 3, absolute error of MD log D vs experiment
# [13] = Table 3, absolute error of PIMD log D vs experiment
compound,measurement,setting,value
CCCCOC(C)=O [ButylAcetate],PCM free energy of hydration,[1],-3.80 kcal/mol
same,CHEX Exp (solvation),[2],-4.94 kcal/mol
same,SMD Error,[3],0.35 kcal/mol
same,FML error,[4],0.61 kcal/mol
same,COSMO/Molpro Error,[5],4.19 kcal/mol
same,Exp (log D),[6],1.75
same,water Exp (hydration),[7],-2.55 kcal/mol
same,PCM Error,[8],1.25 kcal/mol
same,water Arrow MD Error,[9],0.85 kcal/mol
same,water Arrow PIMD8 Error,[9],0.07 kcal/mol
same,Arrow PIMD8 Error,[9],0.07 kcal/mol
same,log D Arrow MD Error,[10]; [12],0.60
same,log D Arrow PIMD Error,[10]; [13],0.06
same,SMD free energy of hydration,[11],-2.90 kcal/mol
CCOC(C)=O [EthylAcetate],PCM free energy of hydration,[1],-3.70 kcal/mol
same,CHEX Exp (solvation),[2],-3.55 kcal/mol
same,SMD Error,[3],0.02 kcal/mol
same,FML error,[4],0.02 kcal/mol
same,COSMO/Molpro Error,[5],3.95 kcal/mol
same,Exp (log D),[6],0.32
same,water Exp (hydration),[7],-3.12 kcal/mol
same,PCM Error,[8],0.58 kcal/mol
same,water Arrow MD Error,[9],0.28 kcal/mol
same,water Arrow PIMD8 Error,[9],0.32 kcal/mol
same,Arrow PIMD8 Error,[9],0.32 kcal/mol
same,log D Arrow MD Error,[10],0.46
same,log D Arrow PIMD Error,[10],0.13
same,SMD free energy of hydration,[11],-3.10 kcal/mol
CCC(=O)OC [MethylPropionate],PCM free energy of hydration,[1],-3.50 kcal/mol
same,CHEX Exp (solvation),[2],-3.71 kcal/mol
same,SMD Error,[3],0.23 kcal/mol
same,FML error,[4],0.20 kcal/mol
same,COSMO/Molpro Error,[5],3.75 kcal/mol
same,Exp (log D),[6],0.57
same,water Exp (hydration),[7],-2.93 kcal/mol
same,PCM Error,[8],0.57 kcal/mol
same,water Arrow MD Error,[9],0.62 kcal/mol
same,water Arrow PIMD8 Error,[9],0.10 kcal/mol
same,Arrow PIMD8 Error,[9],0.10 kcal/mol
same,log D Arrow MD Error,[10]; [12],0.84
same,log D Arrow PIMD Error,[10]; [13],0.45
same,SMD free energy of hydration,[11],-2.70 kcal/mol
CCCOC(C)=O [PropylAcetate],PCM free energy of hydration,[1],-3.80 kcal/mol
same,CHEX Exp (solvation),[2],-4.36 kcal/mol
same,SMD Error,[3],0.14 kcal/mol
same,FML error,[4],0.24 kcal/mol
same,COSMO/Molpro Error,[5],4.12 kcal/mol
same,Exp (log D),[6],1.10
same,water Exp (hydration),[7],-2.86 kcal/mol
same,PCM Error,[8],0.94 kcal/mol
same,water Arrow MD Error,[9],0.64 kcal/mol
same,water Arrow PIMD8 Error,[9],0.07 kcal/mol
same,Arrow PIMD8 Error,[9],0.07 kcal/mol
same,log D Arrow MD Error,[10],0.65
same,log D Arrow PIMD Error,[10],0.37
same,SMD free energy of hydration,[11],-3.00 kcal/mol
Cc1cccc(O)c1 [m-cresol],PCM free energy of hydration,[1],-4.00 kcal/mol
same,CHEX Exp (solvation),[2],-5.20 kcal/mol
same,SMD Error,[3],0.69 kcal/mol
same,FML error,[4],0.72 kcal/mol
same,COSMO/Molpro Error,[5],3.97 kcal/mol
same,Exp (log D),[6],−0.21
same,water Exp (hydration),[7],-5.49 kcal/mol
same,PCM Error,[8],1.49 kcal/mol
same,water Arrow MD Error,[9],2.12 kcal/mol
same,water Arrow PIMD8 Error,[9],1.03 kcal/mol
same,Arrow PIMD8 Error,[9],1.03 kcal/mol
same,log D Arrow MD Error,[10]; [12],0.65
same,log D Arrow PIMD Error,[10]; [13],0.09
same,SMD free energy of hydration,[11],-4.80 kcal/mol
Cc1ccccc1O [o-cresol],PCM free energy of hydration,[1],-3.70 kcal/mol
same,CHEX Exp (solvation),[2],-6.02 kcal/mol
same,SMD Error,[3],1.27 kcal/mol
same,FML error,[4],0.19 kcal/mol
same,COSMO/Molpro Error,[5],1.21 kcal/mol
same,Exp (log D),[6],0.11
same,water Exp (hydration),[7],-5.87 kcal/mol
same,PCM Error,[8],2.17 kcal/mol
same,water Arrow MD Error,[9],1.27 kcal/mol
same,water Arrow PIMD8 Error,[9],0.28 kcal/mol
same,Arrow PIMD8 Error,[9],0.28 kcal/mol
same,hydration error,[9]; predicted vs experimental free energy of hydration,-1 kcal/mol
same,log D Arrow MD Error,[10]; [12],0.67
same,log D Arrow PIMD Error,[10]; [13],0.14
same,SMD free energy of hydration,[11],-4.60 kcal/mol

# Source: patent US20230129485A1, “SYSTEM AND METHOD FOR DETERMINING MATERIAL PROPERTIES OF MOLECULAR SYSTEMS FROM AN AB-INITIO PARAMETERIZED FORCE-FIELD” (InterX, Inc., priority 2021, published 2023)
